Measured values published in patent US9085608B2, “Treatment of biofilms” (LYTIX BIOPHARMA AS, priority 2008, dated 2015).
In brackets after ≈: the same amount, converted by molar mass. Entries after “also recorded” stand apart in the source; their conditions may differ.

How the values were obtained:
[1] = tested on: S. haemolyticus TUH 51-07 biofilm; test: Biofilm imaging, LIVE/DEAD staining and confocal laser scanning microscopy; type: cell-based, Staphylococcus haemolyticus; conditions: 500 mg/L, 24 h treatment
Protocol: One ml aliquots of MHIIB-diluted overnight culture was used to grow S. haemolyticus TUH 51-07 biofilm on plastic coverslides (Thermanox, cellculture treated on one side, NUNC, Roskilde, Denmark) in 24-well dishes (Falcon 3047, Becton Dickinson, NJ, USA) for 24 h. The coverslides were then washed carefully with PBS, moved to a new plate and treated for 24 h with tetracycline 50 mg/L and 500 mg/L, vancomycin 50 mg/L and 500 mg/L, or Compound A 50 mg/L and 500 mg/L. The coverslides were washed again with […] and stained with a LIVE/DEAD kit (Invitrogen Molecular Probes, Eugene, Oreg., USA) following the manufacturer's instructions. This stain contains SYTO 9 (green fluorescent) and propidium iodide (PI; red fluorescent), both binding to DNA. When used alone, the SYTO 9 generally stains all bacteria in a population; both those with intact and those with damaged membranes. In contrast, PI penetrates only bacteria with damaged membranes, causing a reduction in the SYTO 9 stain green fluorescence when both dyes are present. We examined treated and untreated biofilms with a Leica TCS SP5 (Leica Microsystems CMS Gmbh, Mannheim, Germany) confocal laser scanning microscope (CLSM). Images were obtained using a 63×1.2 NA HCX PL APO water immersion lens. For detection of SYTO9 (green channel), we used the 488 nm line of the argon laser and a detection bandwidth of 495-515 nm. For PI detection (red channel), we used the 561 nm line and a detection bandwidth of 615-660 nm. The two fluorescent-signals were collected sequentially at 400 Hz. Image analyses and export was performed in Leica LAS AF version 1.8.2.

S. aureus PIA 90 biofilm = test: Biofilm metabolic activity, Alamar blue reduction; type: cell-based, Staphylococcus aureus
Protocol: (§1) Biofilm formation was induced in 96-well flat bottom microtitre plates (Nunclon Surface, NUNC, Roskilde, Denmark). First, overnight cultures were diluted 1:100 in MHIIB (S. epidermidis and S. haemolyticus) or tryptic soy broth (TSB) with 5% glucose and 5% NaCl (S. aureus). Two hundred of this bacterial suspension (10^7 cfu/ml) was added to each well and incubated for 24 h at 37° C. After 24 h the wells were carefully washed twice with phosphate-buffered saline (PBS) to remove planktonic bacteria. The washing procedure was evaluated by measuring metabolic activity of the PBS with the Alamar blue method, described in detail below. […]
(§2) We quantified the metabolic activity of biofilm with a slightly modified method previously described by Pettit et al. in Antimicrob. […] After 1 h incubation at 37° C., absorbance was recorded at 570 and 600 nm using Versamax tuneable microplate reader (Molecular Devices, Sunnyvale, Calif., USA). […]
(§3) The percent reduction of AB was calculated according to the manufacturer's formula (Invitrogen, Carlsbad, USA). We calculated mean and standard deviations (SD) of all repeated measurements. Pearson's two-tailed correlation between the AB method and the CV method (FIG. 2) was calculated on averaged data from all 6 staphylococcal strains. […]

[2] = tested on: six staphylococcal strains (2 S. epidermidis, 2 S. haemolyticus and 2 S. aureus); test: Susceptibility testing under planktonic growth condition, EUCAST breakpoints; type: cell-based; conditions: all 6 strains; EUCAST criteria
Protocol: The six staphylococcal strains (2 S. epidermidis, 2 S. haemolyticus and 2 S. aureus) used in this study were selected based on their previously known biofilm forming capacity (Table 1).
(§4) Bacteria were grown overnight at 37° C. in cation adjusted Mueller-Hinton II Broth (MHIIB).
We determined the MICs of oxacillin, gentamicin, tetracycline, vancomycin and linezolid using E-test (AB Biodisk, Solna, Sweden) and MICs of rifampicin using broth microdilution assay. Breakpoints were interpreted according to EUCAST criteria. We selected 3 different SAMPs (Compounds A, B and C; Lytix Biopharma, Tromsø, Norway—see FIG. 1) based on previously known antimicrobial activities, and determined their exact MICs with broth microdilution assay. All 3 SAMPs are tripeptides with two arginine residues providing their cationic moieties (FIG. 1). The lipophilic bulk is provided by a modified tryptophane derivate. The difference between the compounds is the size of the C-terminal modification; Compound A has the smallest and Compound B has the largest C-terminal modification (FIG. 1). The molecular weights of the SAMPs are in the range of 700-800 Dalton.

[3] = tested on: S. haemolyticus TUH 51-07 biofilm; test: Biofilm metabolic activity, Alamar blue reduction; type: cell-based, Staphylococcus haemolyticus; conditions: 500 mg/L, 24 h
Protocol: as §1, §2, §3

[4] = tested on: Staphylococcus epidermidis RP62A ATCC 35984; test: microbe, parasite or virus in culture; conditions: planktonic, SE RP62A ATCC 35984
Protocol: as §4
(§5) We determined the MICs of oxacillin, gentamicin, tetracycline, vancomycin and linezolid using E-test (AB Biodisk, Solna, Sweden) and MICs of rifampicin using broth microdilution assay. Breakpoints were interpreted according to EUCAST criteria. […] All 3 SAMPs are tripeptides with two arginine residues providing their cationic moieties (FIG. 1). The lipophilic bulk is provided by a modified tryptophane derivate. […] The molecular weights of the SAMPs are in the range of 700-800 Dalton.

[5] = tested on: Staphylococcus aureus PIA90; test: microbe, parasite or virus in culture; conditions: planktonic, SA PIA90
Protocol: as §4, §5

[6] = tested on: Staphylococcus aureus PIA 9; test: microbe, parasite or virus in culture; conditions: planktonic, SA PIA 9
Protocol: as §4, §5

[7] = tested on: Staphylococcus haemolyticus TUH 51-07; test: microbe, parasite or virus in culture; conditions: planktonic, SH TUH 51-07
Protocol: as §4, §5

[8] = tested on: Staphylococcus haemolyticus TUH 51-03; test: microbe, parasite or virus in culture; conditions: planktonic, SH TUH 51-03
Protocol: as §4, §5

[9] = tested on: Staphylococcus epidermidis TUH 08-16; test: microbe, parasite or virus in culture; conditions: planktonic, SE TUH 08-16
Protocol: as §4, §5

CN(C)[C@@H]1C(=O)C(C(N)=O)=C(O)[C@@]2(O)C(=O)C3=C(O)c4c(O)cccc4[C@@](C)(O)[C@H]3C[C@@H]12 [TET, tetracycline]
LIVE/DEAD staining of biofilm cells (CLSM) [1]: a significant part of the cells are still green; also recorded: still contained a significant number of living cells | suppression of metabolic activity (AB reduction) (S. aureus PIA 90 biofilm): complete suppression | susceptibility under planktonic growth [2]: susceptible; also recorded: sensitive | metabolic activity in biofilm assay [3]: hardly any measurable metabolic activity | MIC [4]: 0.5 mg/L (≈ 1.13 µM) | MIC [5]: 0.5 mg/L (≈ 1.13 µM) | MIC [6]: 0.5 mg/L (≈ 1.13 µM) | MIC [7]: 0.5 mg/L (≈ 1.13 µM) | MIC [8]: 1 mg/L (≈ 2.25 µM) | MIC [9]: 2 mg/L (≈ 4.5 µM)
